The values below come from patent US11999699B2, “Substituted pyrazole amides” (GRUENENTHAL GMBH, priority 2021, dated 2024).

pIC50: −log10 of the molar value.

This test addresses T1, human NaV1.8 (Homo sapiens, UniProt Q9Y5Y9).
T1 construct: The following NaV1.8 recombinant cell line was used for recordings: HEK-NaV1.8 (NM 006514.1); expressed in transfected cells; host or cells: HEK (recombinant cell line HEK-NaV1.8)
The experiment in a line: Electrophysiology: automated whole-cell voltage-clamp (patch clamp, Qube384) recordings of sodium currents in HEK-NaV1.8 cells. Particulars: potency data either taken from inactivated or resting state, read-out: Potency category (human NaV1.8 IC50). It counts as cell-based. The protocol: Electrophysiology: Voltage-Clamp Recordings
The following NaV1.8 recombinant cell line was used for recordings: HEK-NaV1.8 (NM 006514.1) with in (NM 018400.3).
Sodium currents were measured using the patch clamp technique in the whole-cell configuration using the Qube384 (Sophion A/S, Copenhagen, Denmark) automated voltage clamp platform. “Multi hole” plates were used for the cell line expressing NaV1.8 while “single hole” plates were used for the recombinant cell lines expressing the other subtypes. Appropriate filters (for minimum seal resistance and minimum current size) and series resistance compensation (for high quality sodium channel recordings) were applied. Data was collected at ambient room temperature.
The recording extracellular solution contained (in mM): NaCl 145 mM, KCl 4 mM, CaCl2 2 mM, MgCl2 1 mM, HEPES 10 mM, Glucose 10 mM, pH 7.4 (NaOH). The intracellular recording solution contained (in mM): CsF 120 mM, CsCl 20 mM, NaCl 10 mM, EGTA 10 mM, HEPES 10 mM, pH 7.2 (CsOH). Currents were recorded at 25 kHz sampling frequency and filtered at 5 kHz. Series resistance compensation was applied at 65%.
Vehicle (VEH) is the control condition where cells are exposed to 0.3% DMSO without compound. All runs include VEH controls being exposed to the same voltage protocols to assess non-compound related phenomena such as run down and then used to isolate compound dependent effects on currents.
To check for state-dependence inhibition, the following voltage-sequence was applied every 20 seconds:
From a resting membrane potential of −120 mV, the first test pulse (P1; 20 ms to −10 mV) was applied to check for channels in the Resting State followed by a brief recovery (20 ms to −120 mV), then holding the membrane voltage to V112 (4 seconds at voltage to obtain half the channel at Rest and half Inactivated) with a subsequent second test pulse (P2; 20 ms to −10 mV) to check for channels in the Inactivated State, followed by another brief recovery (20 ms to −120 mV) and a final third test pulse (P3; 20 ms to −10 mV) to check for recovered channels.
To check for frequency-dependent inhibition, a 10 Hz protocol and a 20 Hz protocol were applied; namely,
From a resting membrane potential of −120 mV, 40-pulses (10 ms to −10 mV) was applied at 10 Hz (at 100 ms between pulses) and then at 20 Hz (at 50 ms between pulses).
Each parameter was recorded (P1, P2, P3, P40 from 10 Hz and P40 from 20 Hz) during a control period (lasting 5 minutes) when establishing the baseline and during compound period (lasting ˜12 minutes) when test compound (or vehicle) was applied. For each parameter, the value at the end of the compound period was normalized to the vehicle baseline; as follows
To adjust for any variance in the Na^+ current signal during the compound period (owing to cumulative inactivation independent of compound or shifts in biophysics over time), a dedicated segment of the recording wells in each 384 plate were dedicated to having only vehicle exposure. These vehicle-only recordings were used to correct for any apparent “run-up” or “run-down” in the experiment.
The adjusted inhibition was calculated as follows: […]
Percent inhibition was determined and IC50 values were calculated using a 4 parameter logistic model within XLFit Software (IDBS, Boston MA):
[formula] where A and B are the maximal and minimum inhibition respectively, C is the IC50 concentration and D is the (Hill) slope.
The potency data was either taken from inactivated or resting state.
On the technique in general: The patch-clamp technique gives a direct electrical read-out from membranes.

T1 sequence (Q9Y5Y9 whole entry): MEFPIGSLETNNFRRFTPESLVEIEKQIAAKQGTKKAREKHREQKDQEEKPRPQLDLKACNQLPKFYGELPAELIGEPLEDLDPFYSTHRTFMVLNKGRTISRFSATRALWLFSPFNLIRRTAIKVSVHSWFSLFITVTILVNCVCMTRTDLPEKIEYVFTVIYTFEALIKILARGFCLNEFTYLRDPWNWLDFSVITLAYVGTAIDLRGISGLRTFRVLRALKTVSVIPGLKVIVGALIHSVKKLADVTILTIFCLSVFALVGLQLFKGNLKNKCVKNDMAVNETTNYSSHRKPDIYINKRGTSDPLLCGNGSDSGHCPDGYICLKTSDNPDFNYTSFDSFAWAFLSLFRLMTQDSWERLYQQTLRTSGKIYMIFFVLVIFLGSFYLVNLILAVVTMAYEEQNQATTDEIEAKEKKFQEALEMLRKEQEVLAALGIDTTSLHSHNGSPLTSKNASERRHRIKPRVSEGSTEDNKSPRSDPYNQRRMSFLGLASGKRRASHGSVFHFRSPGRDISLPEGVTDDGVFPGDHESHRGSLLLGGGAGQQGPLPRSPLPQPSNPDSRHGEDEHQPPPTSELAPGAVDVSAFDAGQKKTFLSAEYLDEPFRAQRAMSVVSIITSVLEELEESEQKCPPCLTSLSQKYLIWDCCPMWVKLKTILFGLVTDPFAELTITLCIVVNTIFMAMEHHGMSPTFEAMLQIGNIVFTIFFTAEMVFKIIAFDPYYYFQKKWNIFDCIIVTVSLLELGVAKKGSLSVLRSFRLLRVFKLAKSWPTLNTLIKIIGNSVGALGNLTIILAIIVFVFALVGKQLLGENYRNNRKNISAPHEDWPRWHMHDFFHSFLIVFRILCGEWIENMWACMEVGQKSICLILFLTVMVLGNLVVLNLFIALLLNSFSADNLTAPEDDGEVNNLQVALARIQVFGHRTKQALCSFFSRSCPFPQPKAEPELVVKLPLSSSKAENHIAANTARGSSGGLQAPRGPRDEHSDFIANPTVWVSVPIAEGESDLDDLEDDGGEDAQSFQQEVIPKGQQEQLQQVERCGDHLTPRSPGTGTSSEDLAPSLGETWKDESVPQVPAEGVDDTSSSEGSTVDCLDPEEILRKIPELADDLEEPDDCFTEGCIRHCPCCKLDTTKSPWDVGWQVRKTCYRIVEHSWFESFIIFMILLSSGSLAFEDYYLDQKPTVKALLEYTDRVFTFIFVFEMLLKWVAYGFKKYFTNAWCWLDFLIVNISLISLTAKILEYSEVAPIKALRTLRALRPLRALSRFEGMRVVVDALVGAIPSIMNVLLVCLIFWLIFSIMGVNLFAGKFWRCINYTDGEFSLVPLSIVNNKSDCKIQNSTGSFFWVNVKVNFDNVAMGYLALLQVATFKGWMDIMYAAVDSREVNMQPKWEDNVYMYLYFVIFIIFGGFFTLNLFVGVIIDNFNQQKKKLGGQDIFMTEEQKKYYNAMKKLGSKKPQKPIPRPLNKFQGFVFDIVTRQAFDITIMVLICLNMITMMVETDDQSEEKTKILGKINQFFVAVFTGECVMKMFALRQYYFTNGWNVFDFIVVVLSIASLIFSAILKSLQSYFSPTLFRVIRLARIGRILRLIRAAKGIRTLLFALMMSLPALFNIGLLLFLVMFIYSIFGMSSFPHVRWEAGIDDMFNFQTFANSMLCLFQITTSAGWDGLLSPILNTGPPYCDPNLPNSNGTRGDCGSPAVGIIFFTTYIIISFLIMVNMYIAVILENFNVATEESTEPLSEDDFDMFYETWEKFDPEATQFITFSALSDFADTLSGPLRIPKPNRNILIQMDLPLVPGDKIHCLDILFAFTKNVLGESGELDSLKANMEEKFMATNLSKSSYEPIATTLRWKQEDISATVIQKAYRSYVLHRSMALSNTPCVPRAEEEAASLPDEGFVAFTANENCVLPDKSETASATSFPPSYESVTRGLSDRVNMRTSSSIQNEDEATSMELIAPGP
T1 sequence (Q9NY72 23-215 partner): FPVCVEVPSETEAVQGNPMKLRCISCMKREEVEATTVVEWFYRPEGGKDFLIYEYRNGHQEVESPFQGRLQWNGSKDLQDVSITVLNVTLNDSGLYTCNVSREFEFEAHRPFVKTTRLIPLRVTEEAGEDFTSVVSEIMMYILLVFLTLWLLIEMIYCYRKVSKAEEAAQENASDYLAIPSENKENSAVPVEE

As usually defined, the pIC50 is −log10 of the IC50, conventionally taken in molar units. Consider `Cc1nn(CC2CCC(F)(F)CC2)c(C(=O)Nc2cncc(S(C)(=O)=O)c2)c1C(F)(F)F` [SC-241, 1-((4,4-difluorocyclohexyl)methyl)-3-methyl-N-(5-(methyisulfonyl)pyridin-3-yl)-4-(trifluoromethyl)-1H-pyrazole-5-carboxamide], for which the pIC50 is 6.00 to 7.00. The value for `CS(=O)(=O)c1cccc(NC(=O)c2cc(C#N)nn2CC2CCCCC2)c1` [SC-38, 5-cyano-2-(cyclohexylmethyl)-N-(3-methylsulfonylphenyl)pyrazole-3-carboxamide] was 6.00 to 7.00; that for `Cc1c(C(C)(F)F)nn(CC2(C(F)F)CC(F)(F)C2)c1C(=O)Nc1ccnc(C(N)=O)c1` [SC-311, 4-(3-(1,1-difluoroethyl)-1-((1-(difluoromethyl)-3,3-difluorocyclobutyl)methyl)-4-methyl-1H-pyrazole-5-carboxamido)picolinamide] was at least 7.00; that for `CC(F)(F)c1nn(CC2CCC(F)(F)C2)c(C(=O)Nc2ccnc(C(N)=O)c2)c1Cl` (single isomer, unassigned) [SC-149b] was at least 7.00. As for `Cc1c(C(F)(F)F)nn(CC2CCC(F)(F)CC2)c1C(=O)Nc1ccnc(S(N)(=O)=O)c1` [SC-320, 1-((4,4-difluorocyclohexyl)methyl)-4-methyl-N-(2-sulfamoylpyridin-4-yl)-3-(trifluoromethyl)-1H-pyrazole-5-carboxamide], the pIC50 is at least 7.00. The figure for `Cc1c([C@@H](C)C(F)F)nn(CC2CC(F)(F)C2)c1C(=O)Nc1ccnc(C(N)=O)c1` [SC-192a] is 6.00 to 7.00.

Take `Cc1c(C(C)(F)F)nn(CC2C[C@H]2C(F)F)c1C(=O)Nc1ccnc(S(C)(=O)=O)c1` (stereo in doubt) [SC-207, 3-(1,1-difluoroethyl)-1-((2-(difluoromethyl)cyclopropyl)methyl)-4-methyl-N-(2-(methylsulfonyl)pyridin-4-yl)-1H-pyrazole-5-carboxamide]: the pIC50 was 6.00 to 7.00. As to `NC(=O)c1cc(NC(=O)c2c(C(F)(F)F)c(OC(F)F)nn2C[C@@H]2CCC(F)(F)C2)ccn1` [SC-158R], the pIC50 is at least 7.00. In the case of `NC(=O)c1cc(NC(=O)c2c(C(F)(F)F)c(C3CC3)nn2CC2CC2(F)F)ccn1` (single isomer, unassigned) [SC-279b], the pIC50 is 6.00 to 7.00. With `Cc1c(C(C)(F)F)nn(CC2(C(F)F)CC(F)(F)C2)c1C(=O)Nc1ccnc(S(N)(=O)=O)c1` [SC-316, 3-(1,1-difluoroethyl)-1-((1-(difluoromethyl)-3,3-difluorocyclobutyl)methyl)-4-methyl-N-(2-sulfamoylpyridin-4-yl)-1H-pyrazole-5-carboxamide], the pIC50 was at least 7.00. The figure for `Cc1nn(CC2CCC(F)(F)CC2)c(C(=O)Nc2cc(C(N)=O)c(F)cn2)c1C(F)(F)F` [SC-268, 2-(1-((4,4-difluorocyclohexyl)methyl)-3-methyl-4-(trifluoromethyl)-1H-pyrazole-5-carboxamido)-5-fluoroisonicotinamide] is 5.00 to 6.00; for `CS(=O)(=O)c1cc(F)cc(NC(=O)c2c(C(F)(F)F)cnn2CC2CCC(F)(F)CC2)c1` [SC-42, 2-[(4,4-difluorocyclohexyl)methyl]-N-(3-fluoro-5-methylsulfonylphenyl)-4-(trifluoromethyl)pyrazole-3-carboxamide] it is 5.00 to 6.00.

For `CCc1nn(CC2CC(F)(F)C2)c(C(=O)Nc2ccnc(C(N)=O)c2)c1C(F)(F)F` [SC-172, 4-(1-((3,3-difluorocyclobutyl)methyl)-3-ethyl-4-(trifluoromethyl)-1H-pyrazole-5-carboxamido)picolinamide], the pIC50 is at least 7.00. The value for `Cc1c(C(F)(F)C(F)(F)F)nn(CC2CCC2(F)F)c1C(=O)Nc1ccnc(C(N)=O)c1` (single isomer, unassigned) [SC-278b] was at least 7.00; that for `Cc1nn(CC2CCC(F)(F)CC2)c(C(=O)Nc2cccc(C(N)=O)n2)c1C(F)(F)F` [SC-253, 6-(1-((4,4-difluorocyclohexyl)methyl)-3-methyl-4-(trifluoromethyl)-1H-pyrazole-5-carboxamido)picolinamide] was 5.00 to 6.00.
